Experimental data published in the CheMixHub viscosity set.

Assay: xn = mol fraction of the nth substance listed

NCCCC[C@H](N)C(=O)[O-].[K+] + O
viscosity [mPa·s]
Conditions | 293.15 K | 298.15 K | 303.15 K | 308.15 K | 313.15 K | 318.15 K | 323.15 K
100 kPa, x1 = 0.01 | – | 1.138 | – | – | – | – | –
100 kPa, x1 = 0.02 | – | 1.642 | – | – | – | – | –
101.3 kPa, x1 = 0.00479 | 1.183 | 1.051 | 0.9411 | 0.847 | 0.7675 | 0.7007 | 0.6435
101.3 kPa, x1 = 0.00923 | 1.393 | 1.226 | 1.092 | 0.9834 | 0.8868 | 0.8069 | 0.7376
101.3 kPa, x1 = 0.015 | 1.599 | 1.408 | 1.251 | 1.12 | 1.01 | 0.916 | 0.8358
101.3 kPa, x1 = 0.01985 | 1.92 | 1.683 | 1.49 | 1.328 | 1.194 | 1.077 | 0.9784
101.3 kPa, x1 = 0.03254 | 2.783 | 2.408 | 2.108 | 1.861 | 1.655 | 1.483 | 1.337
101.3 kPa, x1 = 0.0375 | 2.961 | 2.59 | 2.233 | 1.989 | 1.744 | 1.577 | 1.404
101.3 kPa, x1 = 0.0395 | – | – | 1.868 | – | 1.448 | – | 1.128
101.3 kPa, x1 = 0.04425 | 4.174 | – | 3.071 | – | 2.351 | 2.094 | 1.872
101.3 kPa, x1 = 0.0501 | 4.177 | 3.576 | 3.074 | 2.687 | 2.353 | 2.092 | 1.861
101.3 kPa, x1 = 0.0595 | – | – | 3.237 | – | 2.45 | – | 1.863
101.3 kPa, x1 = 0.06157 | 6.645 | 5.544 | 4.71 | 4.049 | 3.517 | 3.081 | 2.722
101.3 kPa, x1 = 0.0617 | 5.683 | 4.806 | 4.086 | 3.537 | 3.072 | 2.71 | 2.394
101.3 kPa, x1 = 0.0705 | 7.066 | 5.922 | 4.999 | 4.299 | 3.709 | 3.251 | 2.858
101.3 kPa, x1 = 0.0741 | 7.638 | 6.379 | 5.359 | 4.594 | 3.949 | 3.453 | 3.025
101.3 kPa, x1 = 0.0855 | – | – | 4.606 | – | 3.452 | – | 2.598
